Patent publication US8637494B2, “Method of achieving normoglycemia in diabetics by administration of Withaferin A” (priority 2010, dated 2014)

Columns and labels:
[1] = system: inflammatory gene expression in human islets; assay: RT-PCR human inflammation gene array, cytokine-treated islets; assay type: cell-based
Description: (§1) Cytokine & Withaferin A Treatment: After isolation and overnight culture, islets were subjected to an in-vitro model of inflammatory conditions with a cytokine cocktail of the species specific recombinant proteins (1,000 U/mL TNF-α, 1,000 U/mL IFN-γ, and 50 U/mL IL-1β dissolved in human or mouse islet culture media). Islets were treated by Withaferin A co-culture at concentrations ranging from 0.25 to 2.0 μg/mL. Control islets were cultured in the appropriate culture media lacking both the cytokine cocktail and Withaferin A. All islets were cultured in a humidified incubation chamber at 37° C. with 5% CO2 for the indicated time.

[2] = system: RANTES, IP10, MIG, IL-1β, iNOS expression in human islets; assay: RT-PCR single gene primer assays, dose and time course in human islets; assay type: cell-based
Description: as §1, with “Islets were treated by Withaferin A co-culture at concentrations ranging from 0.25 to 2.0 μg/mL.” left out

[3] = system: MIN6, a mouse beta cell line; assay: RT-PCR gene expression in MIN6 cells; assay type: cell-based
Description: RT-PCR Inflammation Array and Primer Assays: After proper time of treatment, islets were harvested and lysed in lysis buffer (Stratagene, La Jolla Calif.). RNA was purified by Absolutely RNA Miniprep kit (Stratagene) and then reverse transcribed into cDNA by RT2 Firststrand kit (SABiosciences, Frederick Md.). […] The RT-PCR reaction was run in Stratagene MX3000 with following program: 95° C., 10 minutes; 40 cycles of (95° C., 15 second; and 60° C., 60 second). Cycle threshold data was uploaded to a Web-Based PCR Array Data Analysis on SABiociences website and fold change compared to control was analyzed.
Procedure for single gene primer assays was the same except primers of particular genes other than the whole array plate were used.

[4] = system: IP-10; assay: Flow cytometry, intracellular IP-10 in islets; assay type: cell-based, human; details: islets treated with cytokine mix + Withaferin A (untreated 4214.15, cytokine mix 18024.08)
From the text: (§2) The IP-10 expression level was examined by flow cytometry. After treatment, islets were fixed, permeablized and aliquoted to three tubes staining with anti-IP10.

[5] = system: MCP-1 and IP-10; assay: Immunohistochemical staining of MCP-1 and IP-10 (HRP/DAB); assay type: cell-based, human; details: Withaferin A and cytokine treatment vs cytokine treatment
Description: Immunohistochemical Staining: After culture, islets were embedded in OCT compound, flash frozen in liquid nitrogen and stored at −80° C. until sectioning. Nine μm sections of embedded islets were taken and stained for IP-10 (1:100), MCP-1 (1:20), or insulin (1:75) using standard immunohistochemical techniques. Staining was visualized using an HRP-conjugated secondary antibody conjugated with diaminobenzidine (DAB). Samples were then counterstained with hematoxylin, dehydrated and mounted. Images were acquired.
as §2

[6] = system: MCP-1 and IP-10 in human islets; assay: Fluorescent immunohistochemistry, mean fluorescent intensity of MCP-1 and IP-10; assay type: cell-based; details: cytokine cocktail + 0.5 μg/mL Withaferin A, 24 hours
Description: Islet sections were captured under similar conditions and mean fluorescent intensity values were measured. […] Significant differences between mean values groups as determined by Turkey-Kramer post-hoc tests are indicated by an asterisk (*p<0.05) above bars;
Immunohistochemistry: Engrafted livers and cytokine treated islets were preserved in 10% formalin, embedded in paraffin and sectioned at 5 μm. Tissue sections were deparaffinized in xylene (twice for 5 minutes) and series of ethanol gradients (100%, 95%, 90%, 80%, 70%, and 50% ethanol diluted with water for 2 minutes each). Next, sections were heated at 98° C. in 1× Antigen Retrieval Reagent-Universal (R&D Systems) for 20 minutes. Then tissue samples were blocked for non-specific bonding by AquaBlock (EastCoast Bio) for 1 hour at room temperature. Next the primary antibody, diluted in a background reducing antibody diluent, was applied overnight at 4° C. Next, the appropriate fluorescently conjugated secondary antibody (diluted 1000×) was applied for 1 hour at room temperature protected from light. […] Micrographs were imported to Image J, converted to 8-bit grayscale photos, then the mean fluorescence intensity was measured by limiting the region of interest to a single islet via the thresholding function of the program. Mean fluorescent intensity is calculated at the integrated density divided by the area in the region of interest.

[7] = system: human islets; assay: Glucose stimulated static incubation assay, human islets; details: for stimulation index, human islets: 24 hours, no cytokines (control 3.11±1.53)
Description: as §1
(§3) Glucose Stimulated Static Incubation Assay: Islets in each experimental condition were incubated with low (2.8 mM) and then high (20.0 mM) concentrations of glucose solution in Functionality/Viability Medium CMRL1066 (Mediatech, Inc. Manassas, Va.) for 1 hour each at 37° C. Insulin concentrations were measured by an insulin ELISA kit (ALPCO Diagnostics, Salem, N.H.). The insulin secretion levels were normalized by total DNA of the stimulated islets. Studies were performed in triplicate with 10 islets in each group.

[8] = system: mouse islets; assay: Glucose stimulated static incubation assay, mouse islets
Description: as §1, §3

[9] = system: human islets; assay: Viability determination by Hoechst 342/PI, human islets; assay type: cell-based; details: for viability of human islets exposed to cytokines: 24 hours (cytokines 85.8±3.9%, control 93.5±3.2%)
Description: (§4) FIGS. 5A-5D show the optimal Withaferin A dosing is found without toxicity to islets: Human (5A and 5B) and mouse (5C and 5D) islets were cultured with Withaferin A. Samples were taken at 24 and 48 hours and stained with Hoechst 342 (all nuclei) and propidium iodide (necrotic nuclei). The percent viability was determined as the PI^+ area subtracted from the total area (Hoe342 stained). The optimal Withaferin A dose was determined to be 1.0 μg/mL Withaferin A for human islets (5A) and 0.5 μg/mL for mouse islets (5C). Asterisks above bars indicate statistically significant differences in mean values (*p<0.05 for 48 h and **p<0.001 for 24 and 48 hours) between controls and islets exposed to Withaferin A based on two-tailed Student's t test; N=10;
(§5) Viability Determination by Hoechst 342/PI: For immediate in vitro determination of necrosis, islets were incubated with Hoechst 342 (10 μg/mL) and propidium iodide (20 μg/mL) for 10 minutes at 37° C. before imaging via fluorescent microscopy. Fluorescent microsgraphs were merged in Image J (NIH Bethesda, Md.) and the propidium iodide positive area was divided by the Hoechst 342 positive area to provide a calculation of islet viability.

[10] = system: mouse islets; assay: Viability determination by Hoechst 342/PI, mouse islets; assay type: cell-based; details: for viability of mouse islets exposed to cytokines: 24 hours (cytokines 78.1±11.6%, control 93.3±2.9%)
Description: as §4
Mouse Isolation: Islets were isolated from male inbred B6 […] mice (C57BL/6N Inbred Mice, Harlan Labs). Collagenase type V (Sigma, C9263) (2 mg/mL) was injected through the common bile duct into the pancreas. Mouse pancreata were digested by incubation at 37° C. for 28 minutes. After washing, the islets were purified with a discontinuous Ficoll based gradient (1.085 g/mL, 1.077 g/mL, and Cap of DMEM) and centrifugation at 1000 rpm for 10 minutes. Purified islets were further purified in a 65 mm dish in DMEM by removing acinar cells to a purity of greater than 95%. Islets were cultured in DMEM supplemented with Kanamycin and 0.1% BSA, mouse islet culture media.
as §5

[11] = system: IκB in human islets and β-cell lines; assay: Western blotting of IκB after cytokine cocktail; assay type: cell-based; details: cytokines 20 min
Description: Graphical representations (6B) are expressed as means±STD. Asterisks above bars indicate statistically significant differences in mean values (*p<0.05, **p<0.01, ***p<0.001) between treatments and controls (black bars) for each cell type based on two-tailed Student's t test;
Western Blotting: Cells were treated with cytokines for 20 min, then harvested in lysis buffer containing 50 mM HEPES, pH 7.5, 150 mM NaCl, 1% Triton X-100, 0.2 mg/mL phenylmethylsulfonyl fluoride (PMSF), 0.1 M NaF, 2 mM Na3VO4, 10 μg/mL aprotinin, 5 μg/mL pepstatin A, and 5 μg/mL leupeptin. Proteins were subjected to SDS/polyacrylamide gel electrophoresis and electrotransferred to nitrocellulose membranes. Membranes were blocked with 5% milk in Tris-buffered saline containing 0.1% Tween-20 (TBST) pH 7.4 for 2 hours, incubated with primary antibody for 1 hour at 4° C., and washed three times with TBST. Primary antibodies were IkB-α (C-21) (Santa Cruz) and ERK1/2 as described.^21 Membranes were then incubated with secondary antibodies conjugated to DyLight 680 and 800 fluorescent dyes (Cell Signaling) to detect proteins using an ODYSSEY Infrared Imaging System (LI-COR).

[12] = system: NF-κB p65 in human β cells; assay: p65 translocation assay; assay type: cell-based; details: 24 hours (control 21.6±5.3%, cytokines 41.3±13.5%)
Description: Graphical representations (7B) are expressed as means±STD. Asterisks above bars indicate significant differences in mean values (*p<0.05) as determined by Turkey-Kramer post-hoc tests;
p65 Translocation Assay: NF-κB, p65, translocation was determined by overlap of Alexa-488 labeled NF-κB and DAPI stained nuclei, pseudocolored red by Image J for visualization. […] Nuclei positive for activated NF-κB translocation was counted in insulin positive cells and divided by the total number of beta-cells.
To determine whether NF-κB has been activated and moved to the nucleus, immunohistochemistry was performed to locate the p65 portion of NF-κB as described elsewhere.^12 All nuclei in insulin positive human β cells were counted and when NF-κB was stained in the nucleus it was classified NF-κB^+ and nuclei without NF-κB were classified NF-κB^− (FIG. 7A). Percent NF-κB activation was measured at 24 hours after culture with the cytokine cocktail and Withaferin A (FIG. 7B).

[13] = system: G-CSF, IL-2, IL-6, IL-8, IP-10, MCP-1, IL-1α, TNF-α, MIP-1α, MIP-1β secreted by human islets; assay: Secreted inflammatory cytokines and chemokines (Luminex); assay type: cell-based; details: 96 hours
Description: Supernatant was collected and analyzed in duplicate with Millipore's human cytokine detection kit in the Luminex 200®. Results were standardized to the number of islets. Graphical representations are expressed as means±STD. Significant differences between mean values groups as determined by Turkey-Kramer post-hoc tests are indicated by an asterisk (*p<0.05) above bars;
Measurement of Secreted Inflammatory Cytokines and Chemokines: Fifty human islets were cultured in human islet culture media for 96 hours with the cytokine and Withaferin A treatment. Secretion of proinflammatory cytokines was determined by measuring cell culture supernatant in a Luminex 200 with a human inflammatory cytokine MagPlex kit (Millipore, Billerica, Mass.). The bead assay was performed according to the manufacturer's instructions with samples in duplicate.
In this study cell culture supernatants from human islets exposed to cytokines and Withaferin A was evaluated by a multiplex bead assay using Luminex® technology. The cell culture supernatant from which the samples were taken for Luminex analysis contained fifty, pure, hand-picked human islets, which had been cultured at 22° C. for over a week to decrease resident macrophage numbers that might interfere (N=10).

[14] = system: human β cells; assay: TUNEL assay on sections, cytokine mediated beta cell apoptosis; assay type: cell-based; details: cytokine + 1.0 μg/mL, twenty four hours, vs control
Description: Islets were protected from cytokine damage by Withaferin A at both time points. Islet potency was assessed by stimulation index after 24 hours. […] Graphical representations (10E-10G) are expressed as means±STD. Significant differences between mean values groups as determined by Turkey-Kramer post-hoc tests are indicated by an asterisk (*p<0.05) above bars; and
TUNEL Assay: The TUNEL assay was performed with ApopTag® fluorescein in situ apoptosis detection kit. After deparaffinization of samples, antigen retrieval was performed with proteinase K and insulin staining was performed as described previously. Next, digoxigenin labeled nucleotides were added to DNA fragments by the enzyme terminal deoxynucelotidyl transferase (TdT) by incubation at 37° C. for 1 hour. Fluorescein labeled anti-digoxigenin antibodies are bound to the digoxigenin by incubation at room temperature for 30 minutes. Lastly DAPI is stained as described above, and slides are mounted with VecataShield and visualized with fluorescent microscopy. Apoptotic cells are counted as those that appear fluorescently green in the nuclei of insulin positive cells. All nuclei of insulin positive cells were counted and percentage of TUNEL^+ cells was calculated as number of TUNEL positive nuclei divided by the total number of insulin positive beta cells. At least 300 nuclei were counted for each condition. […]

[15] = In vivo intraportal syngeneic islet transplant in STZ diabetic mice; parameters: species or system C57BL/6 mice
Description: Intraperitoneal glucose tolerance test was performed on day 30 post transplant to assess glycemic control of Withaferin A-treated and vehicle-treated (11E) mice; also naïve and STZ-induced diabetic mice were challenged with glucose for comparison. After 12-14 hours of fasting, mice were injected with a 5% glucose solution (1 mg/kg body weight) and blood glucose levels were monitored at 0, 30, and 120 minutes afterwards. […] After thirty days, hepatectomy of recipient mice was performed and the liver was fixed in formalin, embedded in paraffin and stained for insulin (11F) and H&E (11G).
In-vivo Intraportal Transplant: Diabetes was induced in by injecting streptozomycin (STZ 180 mg/kg, 9 mg/mL dissolved in DPBS) into the tail vein. Accu-Chek Aviva® (Roche Diagnostics, Indianapolis, Ind.) was used to monitor blood glucose from the tail vein, and mice were considered diabetic, when their blood glucose was measured as greater than 350 dg/mL for two days in a row. Mice were anesthetized with avertin (20 mg/mL, 0.5 mL/mouse), then two hundred islets were injected into the portal vein by puncturing the portal vein through the pancreas with a 27 gauge, hypodermic needle attached to a glass syringe. The peritoneum was first closed with 5-0 black silk sutures, and before sealing this closure, Withaferin A (25 ug, 0.5 mL/mouse) or vehicle (DPBS) was injected into the peritoneal space. […]
To determine only the anti-inflammatory effects of Withaferin A on islet transplantation, a syngeneic model was used. […] It was determined that 400 islets are required for successful transplantation into the portal vein of the liver for mice.
Daily intraperitoneal injections of Withaferin A (25 μg, 0.5 mL/mouse) for seven days post-transplant beginning immediately after islet infusion were performed on six mice. […] After 12 to 14 hours of fasting, mice were injected with a 5% glucose solution (2 mg/kg body weight) and blood sugar levels were measured at zero, thirty, and one hundred twenty minutes after the injection.

[16] = IPGTT on day 30 post transplant; assay type: in vivo, C57BL/6 mice
Description: Intraperitoneal glucose tolerance test was performed on day 30 post transplant to assess glycemic control of Withaferin A-treated and vehicle-treated (11E) mice; also naïve and STZ-induced diabetic mice were challenged with glucose for comparison. After 12-14 hours of fasting, mice were injected with a 5% glucose solution (1 mg/kg body weight) and blood glucose levels were monitored at 0, 30, and 120 minutes afterwards.
IPGTT: Naïve, transplanted, and STZ induced diabetic mice were used to perform an intraperitoneal glucose tolerance test. The mouse's food was removed for 12-14 hours, then an injection of glucose (1 mg/kg body weight, 5% glucose solution in DPBS) was administered intraperitoneally. Blood glucose was monitored with Accu-Chek at 0, 30, and 120 minutes after the injection.
To evaluate the islet graft function, IPGTT was performed on cured mice and vehicle treated mice on day 30. To control for the pattern in islet function, naïve and STZ-induced diabetic mice were tested as well. After 12 to 14 hours of fasting, mice were injected with a 5% glucose solution (2 mg/kg body weight) and blood sugar levels were measured at zero, thirty, and one hundred twenty minutes after the injection.

[17] = system: inflammatory cytokines and chemokines (iNOS, IL-1β, RANTES, MIG, IP-10) in human islets; details: human islets exposed to inflammatory cytokines, qPCR; cited from earlier work
[18] = system: islets; assay: FDA/PI staining islet viability, dose effect study; details: 48 hours culture
Description: Viability was assessed using fluorescein diacetate (FDA) and propidium iodide (PI). Islets used for the studies were 80 to 90% viable, with a purity of 60 to 85%. Human islets used were handpicked to greater than 95% purity. Islets were cultured with CMRL-based human islet culture media containing 0.1% BSA with Kanamycin at 37° C.
The viability and apoptosis test of islet with four different concentrations of Withaferin A (0.5 μg/mL, 1 μg/mL, 2 μg/mL and 4 μg/mL) was examined. FDA/PI staining was used to determine the islet viability.

[19] = system: islets; assay: TUNEL assay, FITC positive population, dose effect study
Description: The present inventors conducted a dose effect study of Withaferin A on islets. […] The viability and apoptosis test of islet with four different concentrations of Withaferin A (0.5 μg/mL, 1 μg/mL, 2 μg/mL and 4 μg/mL) was examined. FDA/PI staining was used to determine the islet viability.

## CC1=C(CO)C(=O)O[C@@H]([C@@H](C)[C@H]2CC[C@H]3[C@@H]4C[C@H]5O[C@]56[C@@H](O)C=CC(=O)[C@]6(C)[C@H]4CC[C@]23C)C1 [Withaferin A]
[1]; Withaferin A alone, no cytokines
  inflammatory gene expression, Withaferin A treated group vs control: no significant difference
[1]; human islets, FIG. 1B
  inflammatory gene expression, cytokine and Withaferin A group vs cytokine alone group: significantly down regulated
[1]; human islets, cytokine cocktail + Withaferin A vs cytokine alone, all three donors
  inhibition of inflammatory gene expression (FIG. 1C): 60%-100
[2]; 1 μg Withaferin A and cytokines, 12, 24, 36 and 48 hour
  expression level of IL-1β, RANTES, MIG and IP-10 vs cytokine alone: significantly inhibited
[2]; 0.5, 1, 2 and 4 μg per mL with cytokines
  expression of RANTES, IP10, MIG, IL-1β and iNOS: decreased with the increase in Withaferin A concentration
[3]
  IP10, RANTES and MCP-1 expression upregulated by cytokine treatment: could be inhibited
[4]
  IP-10 mean channel fluorescence: 7318.94 (+/−78.21)
[5]
  intensity of MCP-1 staining and IP-10 staining: decreased the intensity
[6]
  IP-10 and MCP-1 levels within beta cells (mean fluorescent intensity): near control levels
[7]; 0.5 μg/mL
  stimulation index, human islets: 3.52±1.97
[7]; 1 μg/mL Withaferin A, no cytokines (FIG. 4D)
  Stimulation Index vs control group: no significant difference
[7]; 1.0 μg/mL
  stimulation index, human islets: 4.21±0.41
[7]; cytokines + 1.0 μg/mL, twenty four hours (cytokines 1.59±0.34, control 3.10±1.53)
  stimulation index, human islets exposed to cytokines: 2.20±0.61
[8]; 0.5 μg/mL, 24 hours, no cytokines (control 11.13±9.28)
  stimulation index, mouse islets: 7.05±2.20
[8]; cytokines with or without Withaferin A, twenty four hours
  stimulation index, mouse islets exposed to cytokines: did not show any significant differences
[9]; 0.5 μg/mL, 48 hours, no cytokines (control 91.8±7.4%)
  viability of human islets: 89.0±4.6%
[9]; 1.0 μg/mL, 48 hours, no cytokines (control 91.8±7.4%)
  viability of human islets: 91.9±3.5%
[9]; 2.0 μg/mL, 24 hours, no cytokines (control 94.9±4.5%)
  viability of human islets: 70.5±8.8%
[9]; cytokine cocktail + 0.5 μg/mL
  viability of human islets exposed to cytokines: 92.6±5.1%
[9]; cytokine cocktail + 1.0 μg/mL
  viability of human islets exposed to cytokines: 94.6±2.9%
[9]; human islets, 24 and 48 hours
  optimal Withaferin A dose without toxicity to islets: 1.0 µg/mL
[10]; 0.25 μg/mL, 48 hours, no cytokines (control 93.8±8.0%)
  viability of mouse islets: 90.1±6.6%
[10]; 0.5 μg/mL, 48 hours, no cytokines (control 93.8±8.0%)
  viability of mouse islets: 94.6±4.4%
[10]; 1.0 μg/mL, no cytokines, time not printed (control 97.3±2.2%)
  viability of mouse islets: 87.8±11.1%
[10]; cytokine cocktail + 0.25 μg/mL
  viability of mouse islets exposed to cytokines: 89.7±5.9%
[10]; cytokine cocktail + 0.5 μg/mL
  viability of mouse islets exposed to cytokines: 89.9±3.6%
[10]; mouse islets, 24 and 48 hours
  optimal Withaferin A dose without toxicity to islets: 0.5 µg/mL
[11]
  IκB protein relative to ERK1/2 after cytokine cocktail: prevented the reduction of IκB
[12]; cytokine cocktail + 0.5 μg/mL
  percent NF-κB+ insulin positive cells: 19.5±8.1%
[12]; cytokine cocktail + 1.0 μg/mL
  percent NF-κB+ cells: 10.0±4.1%
[13]; 1.0 μg/mL, cytokines, p<0.05
  secreted inflammatory molecules: significant decrease
[13]; human islets, cytokines + Withaferin A
  secreted levels of inflammatory cytokines and chemokines: decreased secreted levels of each molecule
[14]
  cytokine induced β cell apoptosis (TUNEL positive staining): totally cancel any effect of cytokines on β cell apoptosis
[15]; 200 islet isograft, 25 μg i.p. daily for 7 days (vehicle 0%)
  success rate (recipients achieving normoglycemia): 83%
[15]; 200 islet isograft, 25 μg i.p. daily for 7 days (vehicle 0/5)
  mice with amelioration of diabetes / mice treated: 5/6
[15]; doses from 2.5 to 50 μg/mouse tested
  ideal dose in the in vivo mouse model: 25 µg
[16]; 0 minutes, day 30 (vehicle 485±95.4)
  blood glucose, IPGTT: 150.3 ± 89.2 mg/dL
[16]; 30 minutes, day 30 (vehicle 523.8±95.3)
  blood glucose, IPGTT: 267.8 ± 84.8 mg/dL
[17]
  decrease of mRNA levels of several chemokines: ten-fold or more
[18]; 0.5 μg/mL
  islet viability (FDA/PI): not decreased
[18]; 1 μg/mL
  islet viability (FDA/PI): not decreased
[18]; 2 μg/mL
  islet viability (FDA/PI): slight decrease
[18]; 4 μg/mL
  islet viability (FDA/PI): significant loss
[19]; 2 μg/mL
  FITC positive population (apoptosis cells): small increase
[19]; 4 μg/mL
  FITC positive population (apoptosis cells): dramatic increase
[19]; low Withaferin A dose samples (0.5 and 1 μg/mL)
  percentage of FITC positive population (apoptosis cells): close to zero
